Eleven compounds from ChEMBL document CHEMBL5329189, “Design, synthesis, and anti-hepatocellular carcinoma of thiopyrimidine/chalcone hybrids as dual STAT3/STAT5 inhibitors” (RSC Med Chem, 2023) can be followed below.

pIC50: −log10 of the molar value. The source made the active and inactive calls. No cut-off for these calls is given here.

For series [1], the system named is Huh-7. Nature of the series: Antitumor activity against human Huh7 cells measured after 48 hrs by MTT assay. The class given is functional, cell-based. As to conditions: Huh-7, 48 h.
For series [2], the target named is Signal transducer and activator of transcription 3 (Homo sapiens) (UniProt P40763). Nature of the series: Inhibition of STAT3 (unknown origin) using TMB as substrate assessed as reduction in phosphorylated STAT3 at Y705 residue incubated for 5 hrs by ELISA (reference value: 14.53 +/- 0.4 ng/ml).
Signal transducer and activator of transcription 3 (Homo sapiens), sequence (P40763 whole entry): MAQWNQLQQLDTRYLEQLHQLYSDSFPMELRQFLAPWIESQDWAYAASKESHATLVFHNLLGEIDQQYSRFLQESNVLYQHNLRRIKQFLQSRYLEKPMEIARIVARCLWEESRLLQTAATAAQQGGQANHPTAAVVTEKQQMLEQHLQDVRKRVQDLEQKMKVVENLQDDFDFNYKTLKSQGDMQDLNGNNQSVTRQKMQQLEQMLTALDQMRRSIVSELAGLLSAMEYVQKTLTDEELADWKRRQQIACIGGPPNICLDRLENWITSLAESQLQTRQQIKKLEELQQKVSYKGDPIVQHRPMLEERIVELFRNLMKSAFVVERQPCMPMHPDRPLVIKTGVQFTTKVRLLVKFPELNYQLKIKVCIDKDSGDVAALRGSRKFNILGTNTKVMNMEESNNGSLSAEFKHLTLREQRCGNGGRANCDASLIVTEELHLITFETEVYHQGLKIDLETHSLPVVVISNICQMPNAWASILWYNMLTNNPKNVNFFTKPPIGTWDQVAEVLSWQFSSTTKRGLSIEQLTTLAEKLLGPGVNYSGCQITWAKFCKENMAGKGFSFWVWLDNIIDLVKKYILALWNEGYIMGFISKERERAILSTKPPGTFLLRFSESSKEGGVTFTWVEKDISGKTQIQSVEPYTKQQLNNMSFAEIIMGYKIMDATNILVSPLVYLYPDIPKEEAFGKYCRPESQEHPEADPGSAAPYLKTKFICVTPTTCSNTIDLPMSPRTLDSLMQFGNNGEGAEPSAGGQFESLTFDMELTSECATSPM
Series [3] is described as follows: Cytotoxicity against THLE-2 cells measured after 48 hrs by MTT assay. The class given is toxicity, cell-based. Particulars: human.
Series [4] concerns HepG2. As to the kind of experiment: Antitumor activity against human HepG2 cells measured after 48 hrs by MTT assay. As to conditions: HepG2, 48 h. The format is functional, cell-based.
The target of series [5] is T1, Signal transducer and activator of transcription 5A (Homo sapiens) (UniProt P42229).
T1 sequence (whole entry): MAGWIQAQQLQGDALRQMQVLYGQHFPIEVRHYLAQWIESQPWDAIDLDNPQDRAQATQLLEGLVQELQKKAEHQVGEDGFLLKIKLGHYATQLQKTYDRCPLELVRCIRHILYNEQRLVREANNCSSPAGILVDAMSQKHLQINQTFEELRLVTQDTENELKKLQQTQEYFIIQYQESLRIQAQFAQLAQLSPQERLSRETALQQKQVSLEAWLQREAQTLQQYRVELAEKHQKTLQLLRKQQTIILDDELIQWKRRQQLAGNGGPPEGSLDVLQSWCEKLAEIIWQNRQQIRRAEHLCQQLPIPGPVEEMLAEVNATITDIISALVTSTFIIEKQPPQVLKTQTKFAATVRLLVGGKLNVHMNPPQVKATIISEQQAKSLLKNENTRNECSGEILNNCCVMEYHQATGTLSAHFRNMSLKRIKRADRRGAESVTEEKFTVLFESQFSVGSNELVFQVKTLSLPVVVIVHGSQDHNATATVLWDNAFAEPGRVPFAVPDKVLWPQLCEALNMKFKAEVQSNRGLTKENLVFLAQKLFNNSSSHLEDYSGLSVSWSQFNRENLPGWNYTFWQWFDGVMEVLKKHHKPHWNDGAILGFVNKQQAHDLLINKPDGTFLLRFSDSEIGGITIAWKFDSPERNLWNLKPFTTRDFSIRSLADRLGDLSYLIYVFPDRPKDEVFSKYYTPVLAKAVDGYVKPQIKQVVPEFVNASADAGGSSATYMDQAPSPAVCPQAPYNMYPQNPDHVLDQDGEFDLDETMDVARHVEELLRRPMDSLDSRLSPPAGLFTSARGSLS
As to the kind of experiment: Inhibition of STAT5a (unknown origin) using TMB as substrate assessed as reduction in phosphorylated STAT5a at Y694 residue incubated for 1.5 hrs by ELISA (reference value: 11.15 +/- 0.91 ng/ml).

A short description of series [6]: Selectivity index, ratio of IC50 for cytotoxicity against THLE-2 cells to IC50 for antitumor activity against human HepG2 cells. The class given is cell-based. As to conditions: THLE-2 cells versus HepG2 cells, read-out: Ratio IC50.
Series [7] has as its target T1, Signal transducer and activator of transcription 5A (Homo sapiens). As to the kind of experiment: Inhibition of STAT5a (unknown origin) using TMB as substrate assessed as reduction in phosphorylated STAT5a at Y694 residue by measuring fold change at 10 uM incubated for 1.5 hrs by ELISA relative to control.
For series [8] the target is unchanged. As to the kind of experiment: Inhibition of STAT5a (unknown origin) using TMB as substrate assessed as reduction in phosphorylated STAT5a at Y694 residue at 10 uM incubated for 1.5 hrs by ELISA (reference value: 11.15 +/- 0.91 ng/ml).
In series [9] the target is Signal transducer and activator of transcription 3 (Homo sapiens) (UniProt P40763). As to the kind of experiment: Inhibition of STAT3 (unknown origin) using TMB as substrate assessed as reduction in phosphorylated STAT3 at Y705 residue by measuring fold change at 10 uM incubated for 5 hrs by ELISA relative to control.
Series [10] has the same target. Nature of the series: Inhibition of STAT3 (unknown origin) using TMB as substrate assessed as reduction in phosphorylated STAT3 at Y705 residue at 10 uM incubated for 5 hrs by ELISA (reference value: 14.53 +/- 0.4 ng/ml).
Series [11] in a line: Selectivity index, ratio of IC50 for cytotoxicity against THLE-2 cells to IC50 for antitumor activity against human Huh-7 cells. The format is cell-based. Particulars: THLE-2 cells versus Huh-7 cells, read-out: Ratio IC50.
For series [12], the system named is Huh-7. Nature of the series: Potency index, ratio of doxorubicin IC50 to test compound IC50 for antitumor activity against human Huh-7 cells incubated for 48 hrs by MTT assay. The class given is functional.
In series [13] the test system is HepG2. As to the kind of experiment: Potency index, ratio of doxorubicin IC50 to test compound IC50 for antitumor activity against human HepG2 cells incubated for 48 hrs by MTT assay. The format is functional.
Series [14] deals with HepG2. Nature of the series: Effect on total STAT3 protein level in human HepG2 cells incubated for 24 hrs by Western blot analysis. The class given is functional, cell-based.
The subject of series [15] is HepG2. As to the kind of experiment: Effect on total STAT5 protein level in human HepG2 cells incubated for 24 hrs by Western blot analysis. The format is functional, cell-based.
Series [16] has as its system Huh-7. Nature of the series: Potency index, ratio of static IC50 to test compound IC50 for antitumor activity against human Huh-7 cells incubated for 48 hrs by MTT assay. The format is functional.
The target of series [17] is Signal transducer and activator of transcription 3 (Homo sapiens) (UniProt P40763). Nature of the series: Inhibition of STAT3 phosphorylation at Tyr705 residue in human HepG2 cells incubated for 24 hrs by Western blot analysis. The class given is cell-based.
Series [18] relates to HepG2. As to the kind of experiment: Potency index, ratio of stattic IC50 to test compound IC50 for antitumor activity against human HepG2 cells incubated for 48 hrs by MTT assay. The class given is functional.
Series [19] concerns the target T2, Signal transducer and activator of transcription 1-alpha/beta (Homo sapiens) (UniProt P42224).
T2 sequence (whole entry): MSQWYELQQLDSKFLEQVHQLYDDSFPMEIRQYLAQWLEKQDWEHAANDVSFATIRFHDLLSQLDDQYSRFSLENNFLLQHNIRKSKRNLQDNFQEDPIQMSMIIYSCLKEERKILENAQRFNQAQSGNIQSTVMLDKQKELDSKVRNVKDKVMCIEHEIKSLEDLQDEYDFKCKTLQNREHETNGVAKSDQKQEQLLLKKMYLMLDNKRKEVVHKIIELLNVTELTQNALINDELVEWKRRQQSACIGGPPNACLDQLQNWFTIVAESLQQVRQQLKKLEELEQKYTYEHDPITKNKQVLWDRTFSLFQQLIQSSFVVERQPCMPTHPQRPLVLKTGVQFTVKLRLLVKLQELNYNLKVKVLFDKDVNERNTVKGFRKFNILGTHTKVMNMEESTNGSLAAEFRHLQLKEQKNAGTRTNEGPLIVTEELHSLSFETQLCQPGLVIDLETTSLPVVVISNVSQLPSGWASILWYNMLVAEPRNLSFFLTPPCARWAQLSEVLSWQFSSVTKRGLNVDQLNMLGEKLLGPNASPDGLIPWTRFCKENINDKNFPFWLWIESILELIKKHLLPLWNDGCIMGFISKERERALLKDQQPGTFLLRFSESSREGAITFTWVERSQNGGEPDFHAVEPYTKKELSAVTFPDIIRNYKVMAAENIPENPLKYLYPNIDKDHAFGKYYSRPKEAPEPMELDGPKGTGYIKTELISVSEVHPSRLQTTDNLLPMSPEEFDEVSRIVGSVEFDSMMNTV
Nature of the series: Inhibition of STAT1 in human HepG2 cells assessed as reduction in STAT1 phosphorylation at Tyr701 residue incubated for 24 hrs by Western blot analysis. The class given is cell-based.

Series [20] has as its system HepG2. As to the kind of experiment: Inhibition of STAT5 phosphorylation at Tyr694 residue in human HepG2 cells incubated for 24 hrs by Western blot analysis. The format is cell-based.

On to `O=[N+]([O-])c1ccc2c(c1)S(=O)(=O)C=C2`, for which the pIC50 is 5.10 in series [1] and 5.08 in [4]. The figures for the Activity in series [2] and in series [5] were 4.9 ng/mL and 9.43 ng/mL, respectively. In addition, the IC50 at 48 h in series [3] is over 100 µM.
Consider `Nc1cc(=O)[nH]c(SCC(=O)Nc2ccc(C(=O)/C=C/c3ccc(F)cc3)cc2)n1`, for which the pIC50 in series [1] is 4.60; in [4], 4.65.
Take `Nc1cc(=O)[nH]c(SCC(=O)Nc2ccc(C(=O)/C=C/c3ccc(Cl)cc3)cc2)n1`: the pIC50 was 5.14 in series [1] and 4.95 in series [4].
On to `Cc1ccc(/C=C/C(=O)c2ccc(NC(=O)CSc3nc(N)cc(=O)[nH]3)cc2)cc1`, for which the selectivity ratio in series [6] is 19.2; in series [11], 20.3. Besides, the figures for the pIC50 in series [1] and in series [4] were 5.61 and 5.59, respectively. The values for the fold change (FC) in series [7] and in series [9] were 2.5 and 2.8, respectively. Further, the Activity in series [8] was 4.44 ng/mL; in series [10], 5.09 ng/mL. Besides, half-maximal inhibition in series [3] (IC50 at 48 h) required 49.5 µM.
As to `COc1cc(/C=C/C(=O)c2ccc(NC(=O)CSc3nc(N)cc(=O)[nH]3)cc2)cc(OC)c1`, the values for the pIC50 in [1] and in series [4] were 5.80 and 5.29, respectively.
Consider `Nc1cc(=O)[nH]c(SCC(=O)Nc2ccc(C(=O)/C=C/c3ccc(Cl)cc3Cl)cc2)n1`, for which the pIC50 in series [1] is 5.08; in series [4], 5.31.
Regarding `COc1ccc(/C=C/C(=O)c2ccc(NC(=O)CSc3nc(N)cc(=O)[nH]3)cc2)cc1`, the values for the pIC50 in series [1] and in series [4] were 5.17 and 5.09, respectively.
On the same counts, the results for `CN(C)c1ccc(/C=C/C(=O)c2ccc(NC(=O)CSc3nc(N)cc(=O)[nH]3)cc2)cc1` are 4.64 and 4.51.
For `COc1cc(/C=C/C(=O)c2ccc(NC(=O)CSc3nc(N)cc(=O)[nH]3)cc2)cc(OC)c1OC`, the values for the selectivity ratio in series [6] and in series [11] were 32.4 and 115, respectively. The pIC50 in series [1] is 6.26; in [4], 5.71. Further, the “Ratio IC50” value in [12] is recorded as 10.4; in [13], 3.7; in series [16], 14.3; in series [18], 4.2. The fold change (FC) in series [7] turned out to be 4.8; in [9] it was 4.5. In addition, the outcome in series [14] and in series [15] was inactive. Besides, the results for the Activity in [8] and in series [10] were 2.28 ng/mL and 3.19 ng/mL, respectively. Besides, the inhibition result in series [17] and in series [20] was “Active” throughout. Moreover, the inhibition entry in series [19] is “inactive”. Further, it took 63.2 µM to reach half-maximal inhibition in series [3] (IC50 at 48 h).
`Nc1cc(=O)[nH]c(SCC(=O)Nc2ccc(C(=O)/C=C/c3ccccc3Cl)cc2)n1`: the pIC50 in series [1] was 5.66; in [4], 5.45.
For `COc1cccc2c1C(=O)c1c(O)c3c(c(O)c1C2=O)C[C@@](O)(C(=O)CO)C[C@@H]3O[C@H]1C[C@H](N)[C@H](O)[C@H](C)O1` [DOXORUBICIN], the pIC50 in series [1] is 5.24; in [4] it was 5.13.
